Assays:
Entamoeba histolytica = experiment: […] activity against Entamoeba histolytica HM-1:IMSS after 72 hrs by eosin-staining method; format: functional, organism-based
MCF7 = experiment: Cytotoxicity against human MCF7 cells after 48 hrs by MTT assay; format: cell-based; conditions: MCF7, 48 h

IC50 (Entamoeba histolytica)	SMILES	IC50 (MCF7)
28 nM	COC(=O)c1ccccc1SCCn1c([N+](=O)[O-])cnc1C	> 250000 nM
15 nM	COC(=O)c1ccccc1[S+]([O-])CCn1c([N+](=O)[O-])cnc1C (configuration not stated)	> 250000 nM
–	Cc1ncc([N+](=O)[O-])n1CCO [METRONIDAZOLE]	> 250000 nM
21 nM	COC(=O)c1ccccc1S(=O)(=O)CCn1c([N+](=O)[O-])cnc1C	> 250000 nM
